In patent publication US6858618B2, “Use of rosuvastatin (zd-4522) in the treatment of heterozygous familial hypercholesterolemia” (AstraZeneca AB, priority 2000, dated 2005):
Marks after values point to notes of the source that are not given here.

Legend:
[1] = system: subjects with heterozygous familial hypercholesterolemia; assay: 24-week randomised double-blind Phase III trial of ZD4522 versus atorvastatin: efficacy (lipids, guideline targets, CRP); format: in vivo, human; conditions: for mean % reduction in LDL-C / Percentage subjects reaching EAS target for LDL-C levels at Week 18, high-risk / Percentage subjects reaching EAS target for LDL-C levels at Week 18, overall / Percentage subjects reaching NCEP target for LDL-C levels at Week 18, high-risk / Percentage subjects reaching NCEP target for LDL-C levels at Week 18, overall / Percentage change from baseline to Week 18 in inflammatory marker CRP / Lsmean of percentage change from baseline to Week 18 in ApoA-I / Lsmean of percentage change from baseline to Week 18 in ApoB / Lsmean of percentage change from baseline to Week 18 in ApoB/ApoA-I ratio / Lsmean of percentage change from baseline to Week 18 in HDL-C / Lsmean of percentage change from baseline to Week 18 in LDL-C / Lsmean of percentage change from baseline to Week 18 in LDL-C/HDL-C ratio / Lsmean of percentage change from baseline to Week 18 in Non-HDL-C/HDL-C ratio / Lsmean of percentage change from baseline to Week 18 in TC / Lsmean of percentage change from baseline to Week 18 in TC/HDL-C ratio / Lsmean of percentage change from baseline to Week 18 in TG: HeFH subjects; for mean % reduction in LDL-C / Percentage subjects reaching EAS target for LDL-C levels at Week 18, high-risk / Percentage subjects reaching EAS target for LDL-C levels at Week 18, overall / Percentage subjects reaching NCEP target for LDL-C levels at Week 18, high-risk / Percentage subjects reaching NCEP target for LDL-C levels at Week 18, overall / Percentage change from baseline to Week 18 in inflammatory marker CRP: 20/40/80 mg; for mean % reduction in LDL-C: primary efficacy analysis; for Percentage subjects reaching EAS target for LDL-C levels at Week 18, high-risk / Percentage subjects reaching EAS target for LDL-C levels at Week 18, overall / Percentage subjects reaching NCEP target for LDL-C levels at Week 18, high-risk / Percentage subjects reaching NCEP target for LDL-C levels at Week 18, overall / Lsmean of percentage change from baseline to Week 18 in ApoA-I / Lsmean of percentage change from baseline to Week 18 in ApoB / Lsmean of percentage change from baseline to Week 18 in ApoB/ApoA-I ratio / Lsmean of percentage change from baseline to Week 18 in HDL-C / Lsmean of percentage change from baseline to Week 18 in LDL-C / Lsmean of percentage change from baseline to Week 18 in LDL-C/HDL-C ratio / Lsmean of percentage change from baseline to Week 18 in Non-HDL-C/HDL-C ratio / Lsmean of percentage change from baseline to Week 18 in TC / Lsmean of percentage change from baseline to Week 18 in TC/HDL-C ratio / Lsmean of percentage change from baseline to Week 18 in TG: Week 18, LOCF on ITT population; for Percentage change from baseline to Week 18 in inflammatory marker CRP: Week 18, observed data; for Lsmean of percentage change from baseline to Week 18 in ApoA-I / Lsmean of percentage change from baseline to Week 18 in ApoB / Lsmean of percentage change from baseline to Week 18 in ApoB/ApoA-I ratio / Lsmean of percentage change from baseline to Week 18 in HDL-C / Lsmean of percentage change from baseline to Week 18 in LDL-C / Lsmean of percentage change from baseline to Week 18 in LDL-C/HDL-C ratio / Lsmean of percentage change from baseline to Week 18 in Non-HDL-C/HDL-C ratio / Lsmean of percentage change from baseline to Week 18 in TC / Lsmean of percentage change from baseline to Week 18 in TC/HDL-C ratio / Lsmean of percentage change from baseline to Week 18 in TG: oral once daily, forced titration 20/40/80 mg
Description: We have conducted a Phase III trial designed to assess the efficacy of ZD4522 in subjects with HeFH. The dose-response of ZD4522 was compared with atorvastatin using the percentage change from baseline in LDL-C levels as the primary end-point. Doses of ZD4522 up to 80 mg per day were use& Atorvastatin was chosen as the comparator statin in this trial because it has the best LDL-C lowering activity of the currently marketed statins.
The primary objective was to compare the efficacy of ZD4522 (titrated to 80 mg) with that of atorvastatin (titrated to 80 mg) in reducing low-density lipoprotein cholesterol (LDL-C) levels in subjects with heterozygous familial hypercholesterolemia (HeFH) after 18 weeks of treatment.
Population: A total of 265 (200 in the ZD4522 group, 65 in the atorvastatin group) randomised to and evaluable subjects with documented heterozygous F, derived from approximately 1240 recruited subjects, were required to enable 80% power in detecting a 6% difference between groups in the percentage change from baseline in LDL-C levels.
Key exclusion criteria: Various concomitant illnesses, including active liver disease or hepatic dysfunction (defined by an alanine aminotransferase [ALT], aspartate amninotransferase [AST] or bilirubin concentration […] of normal [ULN]), active arterial disease, history of malignancy (unless basal or squamous cell skin carcinoma), uncontrolled hypertension, and uncontrolled hypothyroidism; serum creatine kinase (CK) concentration >3×ULN; usage of concomitant medications known to affect the lipid profile or present a potential safety concern (for example, through drug interaction).
Efficacy: Fasting LDL-C, total cholesterol (TC), high-density lipoprotein cholesterol (HDL-C), and TG were assessed at, Weeks 0, 2, 6, 12, and 18; fasting apolipoprotein (ApoB) and apolipoprotein A-I (ApoA-I) were assessed at Weeks 0 and 18; C-reactive protein (CRP) was assessed at Weeks 0 and 18. Dietary compliance throughout the trial was assessed and evaluated.
The primary end-point was the percentage change from baseline to Week 18 in LDL-C levels, and was analysed using analysis of variance (ANOVA) on last observations carried forward (LOCF) from an intention-to-treat (ITT) population; the initial ANOVA model included terms for treatment, center, and center-by-treatment interaction. Additional analyses using observed data from ITT and per-protocol (PP) populations were used to confirm the robustness of the Main ITT analysis.
Percentage changes from baseline in the other lipids and lipoproteins were secondary end-points of the trial and were analysed using ANOVA. The other secondary end-points of the percentage of subjects in the ITT population who achieved targets for LDL-C levels specified by the National Cholesterol Education Program (NCEP) or the European Atherosclerosis Society (EAS), and the percentage change from baseline in the inflammatory marker CRP, were summarised only.

[2] = system: subjects with heterozygous familial hypercholesterolemia; assay: 24-week randomised double-blind Phase III trial of ZD4522 versus atorvastatin: safety assessments; conditions: HeFH subjects, 20/40/80 mg, safety population
Description: A further secondary objective was to determine the safety of ZD4522.
Design: A 24-week, randomised, double-blind, 2-group, parallel-group, forced-titration, multicentre, multinational trial. After a 6-week dietary lead-in period, subjects were randomised to treatment with either ZD4522 20 mg, or atorvastatin 20 mg for 6 weeks. Following this initial treatment period, all subjects with an LDL-C level >1.3 mmol/L (50 mg/dL) were force-titrated at 6-week intervals as follows; from ZD4522 20 to 40 to 80 mg, and from atorvastatin 20 to 40 to 80 mg. The maximum titrated dose of either treatment after 18 weeks was 80 mg.
Dosage: Subjects took oral doses of trial treatment once daily, approximately 3 hours after the evening meal. Doses of treatments were as follows; ZD4522 20, 40, and 80 mg, atorvastatin 20, 40, and 80 mg. Subjects had their doses titrated up at 6-week intervals in a sequential manner, if appropriate.
Safety: Standard safety assessments included adverse event pot clinical laboratory data (hepatic biochemistry, CK, renal biochemistry, haematology, urinalysis), vital signs, electrocardiograms (ECGs) and physical examination.

Compound	mean % reduction in LDL-C ([1]; 18 weeks, LOCF)	Percentage subjects reaching EAS target for LDL-C levels at Week 18, high-risk [1]	Percentage subjects reaching EAS target for LDL-C levels at Week 18, overall [1]	Percentage subjects reaching NCEP target for LDL-C levels at Week 18, high-risk [1]	Percentage subjects reaching NCEP target for LDL-C levels at Week 18, overall [1]	Percentage change from baseline to Week 18 in inflammatory marker CRP [1]	Lsmean of percentage change from baseline to Week 18 in ApoA-I [1]	Lsmean of percentage change from baseline to Week 18 in ApoB [1]	Lsmean of percentage change from baseline to Week 18 in ApoB/ApoA-I ratio [1]	Lsmean of percentage change from baseline to Week 18 in HDL-C [1]	Lsmean of percentage change from baseline to Week 18 in LDL-C [1]	Lsmean of percentage change from baseline to Week 18 in LDL-C/HDL-C ratio [1]	Lsmean of percentage change from baseline to Week 18 in Non-HDL-C/HDL-C ratio [1]	Lsmean of percentage change from baseline to Week 18 in TC [1]	Lsmean of percentage change from baseline to Week 18 in TC/HDL-C ratio [1]	Lsmean of percentage change from baseline to Week 18 in TG [1]	other results
CC(C)c1c(C(=O)Nc2ccccc2)c(-c2ccccc2)c(-c2ccc(F)cc2)n1CC[C@@H](O)C[C@@H](O)CC(=O)O [Atorvastatin, atorvastatin]	50.41%	24.2%	24.1%	3.2%	46.0%	31.28%	−2.33^b %	−44.44^b %	−42.46^b %	2.91^b %	−50.41^b %	−51.16^b %	−49.86^b %	−42.13^b %	−43.17^b %	−31.60^ns %	clinically significant elevations (≧10×ULN) in CK [2]: no clinically significant elevations; incidence of clinically significant elevations in ALT (≧3×ULN) [2]: 1.1%; number of patients with clinically significant elevations in ALT (≧3×ULN) [2]: 2 patients; overall incidence of AEs (including treatment-related AEs, AEs leading to withdrawals and SAEs) [2]: 65.8%
CC(C)c1nc(N(C)S(C)(=O)=O)nc(-c2ccc(F)cc2)c1/C=C/[C@@H](O)C[C@@H](O)CC(=O)O [ZD4522, (E)-7-[4-(4-fluorophenyl)-6-isopropyl-2-[methyl(methylsulfonyl)amino]pyrimidin-5-yl](3R,5S)-3,5-dihydroxyhept-6-enoic acid]	57.88%	47.5%	47.4%	23.9%	60.5%	25.21%	5.86^b %	−50.21^b %	−52.03^b %	12.36^b %	−57.88^b %	−61.69^b %	−59.40^b %	−46.35^b %	−51.44^b %	−27.82^ns %	difference between treatments in % reduction in LDL-C (versus atorvastatin 20/40/80 mg) ([1]; 18 weeks, LOCF, ZD4522 20/40/80 mg versus atorvastatin 20/40/80 mg): > 6%
